Entries after “also recorded” stand apart in the source; their conditions may differ.

The subject of data set [1] is C57BL/6J mice. The data set is described as follows: Pyruvate tolerance test. The data set is classed as in vivo, mouse. Particulars: 50 mg kg^−1 ip, pyruvate 2 g kg^−1. The procedure: Pyruvate tolerance test was performed on 18 h-fasted mice (12 week-old male C57BL/6J mice, n=8 for each group, randomized on blood glucose at the end of the fasting period). […] Fifteen minutes later, blood glucose was measured before and after (up to 120 min) intraperitoneal sodium pyruvate (2 g kg^−1) injection. The AUC of glycaemia versus time were calculated to estimate the total glucose synthesized from pyruvate. Blood glucose levels were determined using an Accu-Check glucometer (Roche Diagnostics). The protocol was approved by the ethical comitee CEEA Nord Pas de Calais (CEEA75).

For data set [2], the system named is C57BL/6J mice. As to the kind of experiment: Oral glucose tolerance test (OGTT) in C57BL/6J mice. The data set is classed as in vivo, mouse. The protocol: OGTT and IPGTT were performed on 11 to 16 week-old male or female mice (n=4–7 per experimental group). C57BL/6J mice were purchased from Charles River Laboratories (France), Stock no. 000664. C57BL/6J Ide−/− mice were obtained from Guenette[20] and bred in the animal facility of INSERM U1151. WT C57BL/6J mice of the same genetic background were bred in the same animal facility in parallel. NOD Ide−/− mice were generated by backcrossing C57BL/6J Ide−/− mice with NOD wt mice bred in the animal facility of INSERM U1151 and maintained in this facility together with WT NOD mice. Normoglycemic WT and Ide−/− female NOD mice aged 14 weeks were used for OGTTs. Following a 6 h fasting period, a small tail cut was made, basal blood glucose was determined. […] Fifteen minutes later, blood glucose concentrations were measured before and after (up to 120 min, as shown) oral (2 g kg^−1 or 3 g kg^−1, as shown) or intraperitoneal (1.5 g kg^−1) glucose administration. In one series of OGTTs using 3 g kg^−1 glucose and shown in Fig. 5, groups of WT and Ide−/− were inverted between experiments, such that mice initially treated with vehicle were treated 2 days later with 1 and vice versa. Blood glucose levels were determined using an Accu-Check glucometer (Roche Diagnostics). Areas under the curves (AUC) for OGTT and IPGTT were calculated to evaluate glucose tolerance. Plasma insulin concentrations were measured by ELISA (cat. no. 10-1247-01,Mercodia) in blood samples collected 15 min before and 15 and 90 min relative to oral glucose injection. The protocol was approved by the ethical comitee CEEA Paris Descartes (CEEA34).

Data set [3] concerns the target T1, hIDE (Homo sapiens, UniProt P14735).
T1 construct: made in house
T1 sequence (P14735 1-1019): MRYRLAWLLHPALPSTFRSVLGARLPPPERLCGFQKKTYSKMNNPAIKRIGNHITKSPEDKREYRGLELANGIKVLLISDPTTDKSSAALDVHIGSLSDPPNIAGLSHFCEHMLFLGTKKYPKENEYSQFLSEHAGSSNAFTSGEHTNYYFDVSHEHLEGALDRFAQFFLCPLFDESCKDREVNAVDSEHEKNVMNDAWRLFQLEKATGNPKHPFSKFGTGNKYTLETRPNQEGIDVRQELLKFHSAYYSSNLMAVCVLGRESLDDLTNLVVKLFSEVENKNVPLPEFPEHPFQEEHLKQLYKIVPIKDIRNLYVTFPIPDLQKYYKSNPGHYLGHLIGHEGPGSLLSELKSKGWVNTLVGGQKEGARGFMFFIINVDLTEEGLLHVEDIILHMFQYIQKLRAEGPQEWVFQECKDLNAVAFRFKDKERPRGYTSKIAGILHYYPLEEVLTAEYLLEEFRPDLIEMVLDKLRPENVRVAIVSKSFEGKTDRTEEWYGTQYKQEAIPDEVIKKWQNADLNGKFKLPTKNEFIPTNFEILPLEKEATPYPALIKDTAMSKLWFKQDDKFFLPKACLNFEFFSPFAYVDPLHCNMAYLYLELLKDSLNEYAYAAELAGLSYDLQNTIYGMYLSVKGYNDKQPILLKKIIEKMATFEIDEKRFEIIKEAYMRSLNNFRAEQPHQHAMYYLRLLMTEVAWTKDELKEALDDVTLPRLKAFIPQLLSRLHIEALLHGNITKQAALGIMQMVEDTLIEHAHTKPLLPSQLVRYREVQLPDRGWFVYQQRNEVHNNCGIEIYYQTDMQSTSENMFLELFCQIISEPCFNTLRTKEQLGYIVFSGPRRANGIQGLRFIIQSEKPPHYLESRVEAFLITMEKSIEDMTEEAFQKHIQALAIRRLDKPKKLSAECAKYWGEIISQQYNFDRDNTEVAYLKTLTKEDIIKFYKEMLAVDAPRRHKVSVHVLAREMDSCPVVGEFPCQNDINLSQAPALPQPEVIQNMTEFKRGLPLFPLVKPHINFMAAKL
As to the kind of experiment: In vitro hIDE inhibition of Aβ16–23-based substrate hydrolysis. The data set is classed as biochemical. The procedure: In vitro IDE activity was measured with a quenched substrate […]. Human recombinant IDE was cloned and purified as previously described. […] All measurements were carried out as 8-point dose response curves and reported as the average of at least three independent measurements. […] Data analysis was performed using Xlfit v 5.0 and GraphPad Prism v 4.0. Nonlinear curve fitting and statistical analysis was done using built-in functions.

Data set [4] in a line: Stability in mouse plasma. The data set is classed as in vitro ADME. Particulars: 37 °C, read-out: Plasma stability m (t1/2). The protocol:
Incubations were performed in duplicate in Eppendorf tubes. The plasma (mouse plasma, rat plasma (mixed gender), human (mixed gender, all lithium heparine, from Sera Laboratories International) or cell culture medium (differenciation medium: DMEM (Life Technologies, Ref 41965), 0.4 % gentamicine, 10 % FCS (Lonza, Ref DE14-801F) or proliferation medium: DMEM (Life Technologies, Ref 41965), 0.4 % gentamicine, 2 % horse serum (Gbco, Ref16050) was pre-incubated 5 min at 37 °C before the addition of test compounds to a final concentration of 10 μM (1% DMSO maximum). At the defined time points, 50 μl from each tube were removed to another tube containing 450 μl of cold CH3CN+ internal standard (1 μM). After centrifugation (10 min at 10,000 r.p.m.), supernatants are analysed. The degradation half-life (t1/2) values were calculated as t1/2=0.693/k where k is the first-order degradation rate constant. The degradation rate constant (k) was estimated by one-phase exponential decay nonlinear regression analysis of the degradation time course data using Xlfit software (version 2.1.2 or higher) from IDBS.Ltd.

For `O=C(C[C@@H](Cc1ccc2ccccc2c1)n1cc(CNC(=O)c2ccc(F)cc2)nn1)NO` [Compound 1], the “hepatic gluconeogenesis in pyruvate tolerance test” value in data set [1] was “No effect on gluconeogenesis; also recorded: not altered”. The “glucose tolerance in OGTT, WT C57BL/6J” value in data set [2] (50 mg kg^−1 ip, 3 g kg^−1 oral glucose 15 min later) is recorded as “Impairs glucose tolerance in OGTT; also recorded: acute glucose intolerance”. In data set [2] (50 mg kg^−1 ip, Ide−/− mice), the “glucose tolerance in OGTT, Ide−/− C57BL/6J” value is on record as “did not develop glucose intolerance” and the “plasma insulin concentrations in OGTT, Ide−/− C57BL/6J” value is “no effect”. For the same molecule, the “plasma glucose after oral glucose administration (OGTT compared with IPGTT)” value in data set [2] (50 mg kg^−1 ip, oral glucose 2 g kg^−1) is on record as “significantly increased”. In data set [2] (baseline, 15 and 90 min after glucose load), the “plasma insulin levels in OGTT versus vehicle, WT C57BL/6J” value is “similar”. For the same molecule, the IC50 (commonly the concentration that gives 50% inhibition) in data set [3] worked out at 0.3 µM. For the same molecule, in data set [4], the half-life at 10 μM amounted to 24 h.
